From US11357851B2, “Uses of myostatin antagonists, combinations containing them and uses thereof” (Novartis AG, priority 2015, dated 2022)

Experiments:
[1] = system: CT-26 mouse colon cancer-induced cachexia; assay: Therapeutic intervention study in CT-26 mouse colon cancer-induced cachexia (tumor-bearing mice); type: in vivo; conditions: for body weight loss (of initial body weight): tumor-bearing animals, ten days after starting treatment, CDD866 20 mg/kg s.c. once weekly, cisplatin 1 mg/kg i.p. twice a week; for CT-26-induced loss in body weight: day 14, CDD866 twice weekly; for CT-26-induced muscle weight loss: tibialis anterior, gastrocnemius-soleus-plantaris complex, quadriceps
Procedure: (§1) Adult male Balb/cJRj mice at the age of 11 to 12 weeks were purchased from Janvier Laboratories (Le Genest St Isle, France). Mice were acclimated to the facility for 7 days. Animals were housed in groups of 5 or less animals at 25° C. with a 12:12 h light-dark cycle. They were fed a standard laboratory diet containing 18.2% protein and 3.0% fat with an energy content of 15.8 MJ/kg (NAFAG 3890, Kliba, Basel, Switzerland). Food and water were provided ad libitum.
(§2) Mouse colon cancer cell line CT-26 was cultured in RPMI 1640 medium supplemented with 10% heat inactivated fetal bovine serum and antibiotic-antimycotic solution at 37° C. with 5% CO2. CT-26 cells were harvested by treatment with Accutase® (PAA Laboratories GmbH, Pasching, Austria) and suspended in a solution containing 50% PBS and 50% BD Matrigel™ Matrix without phenol red (catalog number 356237, BD Biosciences, Bedford, Mass., USA). A 0.1 mL of cell suspension containing 3×10^5 cells was inoculated subcutaneously into the left flank of mice. When tumors were palpable, mice bearing tumors with acceptable morphology and size were randomized to produce groups balanced with respect to mean and range of tumor sizes and body weight. Treatments were initiated on the day of randomization. Therapeutic intervention study was conducted to evaluate the effect of CDD866, either alone or in combination with anti-cancer agents. CDD866 was administered at 20 mg/kg s.c., once or twice weekly in a volume of 5 mL/kg. Cisplatin was administered at 1 mg/kg i.p. twice a week. Everolimus was administered at 5 mg/kg p.o. once daily. In the combination groups, cisplatin or everolimus treatment was combined with once or twice weekly subcutaneous treatment of CDD866, respectively. Body weight and tumor volume were measured 2 to 3 times per week. At the end of the experiment, the mice were euthanized with CO2, and tumor, tibialis anterior, gastrocnemius-soleus-plantaris complex, quadriceps were collected and weighed.
(§3) Values are expressed as mean±SEM. Statistical analysis was carried out using Sidak's multiple comparison test following analysis of variance to compare the treatment groups to the control groups (non-tumor and tumor-bearing), anti-cancer agent alone (cisplatin or everolimus) or CDD866 alone in the therapeutic intervention study, and Dunn's multiple comparisons test for time-to-progression study. Differences were considered to be significant when the probability value was <0.05. Statistical analyses were performed by GraphPad Prism (GraphPad Software, Inc., La Jolla, Calif., USA). Body weight was expressed as % change from day 0 as the start of treatment. Tumor volumes in cubic mm were calculated according to the formula (length×width^2)/2. Muscle weight was normalized to the body weight on the day of cell inoculation (initial body weight) and then expressed as % change from the non-tumor control group.

non-tumor bearing mice = assay: Therapeutic intervention study, non-tumor bearing (healthy control) mice; type: in vivo, mouse; conditions: for body weight in healthy control animals: cisplatin study, non-tumor mice; for weight of tibialis anterior, gastrocnemius-soleus-plantaris complex and quadriceps muscles in non-tumor bearing group / body weight gain in non-tumor bearing group: everolimus study; for body weight gain in non-tumor bearing group: up to day 14, CDD866 20 mg/kg s.c. twice weekly, everolimus 5 mg/kg p.o. once daily
Procedure: as §1, §2, §3

[2] = system: CT-26 mouse colon cancer-induced cachexia; assay: Time-to-progression study in CT-26 mouse colon cancer cachexia; type: in vivo; conditions: for time-to-progression (days until body weight loss 20% or tumor volume 1,500 mm^3): cisplatin combination study, CDD866 once weekly; for time-to-progression (median days elapsed until an interruption criterion): everolimus combination study, after randomization and treatment start, CDD866 twice weekly
Procedure: Time-to-progression study was performed as a follow-up to assess if the combination of CDD866 and cisplatin or everolimus slows progression of cancer cachexia to the interruption criteria which was defined by body weight loss reaching to 20% or tumor volume exceeding 1,500 mm^3. The treatment regimen was the same as used in the therapeutic intervention study. Body weight and tumor volume were measured 2 to 3 times per week in the first 2 weeks and then every day until the end of experiment. The mice were euthanized with CO2, when body weight loss was close to 20% or tumor volume exceeded 1,500 mm^3.
as §3
Extensive tumor growth and subsequent body weight loss are important predictors of mortality in cancer patients. We therefore wanted to evaluate whether the combination of CDD866 and cisplatin has an impact on the length of survival. For ethical reason we abstained from classical survival studies. Instead, each mouse was individually euthanized when experiencing either a body weight loss exceeding 20% of initial body weight, or reaching a tumor volume of 1,500 mm^3, determined as time-to-progression.

[3] = cisplatin study, CT-26 tumor-bearing mice
[4] = cisplatin study, CT-26 tumor-bearing mice, normalized to initial body weight, versus non-tumor control

Compound	tumor progression / CT-26 tumor volume and weight [1, 3]	gastrocnemius muscle weight loss [1, 4] [%]	tibialis anterior muscle wasting (muscle loss) [1, 4] [%]	body weight loss (of initial body weight) ([1]; cisplatin study) [%]	body weight in healthy control animals (non-tumor bearing mice)	time-to-progression (days until body weight loss 20% or tumor volume 1,500 mm^3) [2] [days]	CT-26 tumor growth ([1]; everolimus study)	CT-26 tumor weight ([1]; everolimus study)	CT-26-induced loss in body weight ([1]; everolimus study)	CT-26-induced muscle weight loss ([1]; everolimus study)	weight of tibialis anterior, gastrocnemius-soleus-plantaris complex and quadriceps muscles in non-tumor bearing group (non-tumor bearing mice)	body weight gain in non-tumor bearing group (non-tumor bearing mice)	time-to-progression (median days elapsed until an interruption criterion) [2] [days]
N.N.[Cl][Pt][Cl] [cisplatin, cis-diamminedichloro-platinum(II)]	reduced CT-26 tumor weight to similar levels	25	34	20	did not affect body weight	12							
CO[C@H]1C[C@@H]2CC[C@@H](C)[C@@](O)(O2)C(=O)C(=O)N2CCCC[C@H]2C(=O)O[C@H]([C@H](C)C[C@@H]2CC[C@@H](OCCO)[C@H](OC)C2)CC(=O)[C@H](C)/C=C(\C)[C@@H](O)[C@@H](OC)C(=O)[C@H](C)C[C@H](C)/C=C/C=C/C=C/1C [everolimus, (1R,9S,12S,15R,16E,18R,19R,21R,23S,24E,26E,28E,30S,32S,35R)-1,18-d ihydroxy-12-{(1 R)-2-[(1S,3R,4R)-4-(2-hydroxyethoxy)-3-methoxycyclohexyl]-1-methylethyl}-19,30-dimethoxy-15,17,21,23,29,35-hexamethyl-11,36-dioxa-4-aza-tricyclo[30.3.1.04,9]hexatriaconta-16,24,26,28-tetraene-2,3,10,14,20-pentaone]							slowed CT-26 tumor growth	significantly reduced	completely prevented	significantly reduced	not affected	not affected significantly	23
CDD866: murinized version of bimagrumab, where the human Fc region of the antibody has been replaced by a mouse Fc	neither accelerated tumor progression	13		3	marked body weight gain	16		no significant effect	completely prevented	significantly reduced	significantly increased	increased significantly	21
